Assays:
G. vaginalis G19 = test: anti-Gardnerella activity of film dispersions, micromethod (CSLI M45); type: cell-based, Gardnerella vaginalis; parameters: key: −: absence of bacterial growth; +: presence; details: lactic acid used for the preparation of formulations (control)
Method: (§1) In an embodiment, the antibacterial activity of chitosan films was tested against two Gardnerella vaginalis clinical strains, this being the pathogen most frequently associated with vaginal bacteriosis. […] The antibacterial activity was tested according to the CSLI M45 standard. Controls were performed with VFS and the lactic acid used for the preparation of formulations, as well as growth controls of strains and sterility of the culture medium used. All tests were performed in duplicate. Plates were observed concerning the presence or absence of bacterial growth after 48 h of growth at 37° C. Table 3 represents the results obtained indicating the marked activity of the film since no bacterial growth occurs for 1:4 dilution (second sequential dilution) of the film dispersion in 3 mL of water and VFS. […] The test was performed after incubation of the wells containing the tissue with maintenance medium (commercial), at 37° C. with 5% CO2 atmosphere, in accordance with the recommendations of the supplier. After the incubation period, 17 mg of film were placed over the tissue in each well and added of […] of PBS to allow for dispersion. After the 12 h incubation period, cellular viability was assessed by the MTT test (n=2 wells) and histological analysis was performed. […] Since this formulations was developed to treat an infection, being toxic to bacteria, it wouldn't be expected to totally innocuous for the human tissue. Biocompatibility of chitosan with human tissue has been described and the lactic acid used in this formulation was selected due to the natural occurrence in the vagina. On the other hand, the fact that this formulation is intended for short term treatments, in an altered vaginal environment due to the presence of pathogens, can influence the final effect of the formulation in the tissue of the host.

G. vaginalis G71 = test: as above; type: cell-based, Gardnerella vaginalis; parameters: key: −: absence of bacterial growth; +: presence; details: lactic acid used for the preparation of formulations (control)
Method: as §1

Measured: bacterial growth

CC(O)C(=O)O (stereo not shown) [Lactic acid, lactic acid]
−: G. vaginalis G19; dilution 1:2 | G. vaginalis G19; dilution 1:4 | G. vaginalis G71; dilution 1:2 | G. vaginalis G71; dilution 1:4

From patent publication US20170224749A1, “VAGINAL COMPOSITION FOR THE TREATMENT OF UROGENITAL INFECTIONS” (HPRD - HEALTH PRODUCTS RESEARCH AND DEVELOPMENT LDA, priority 2014, published 2017)
